Like-named read-outs stand apart in the source and are kept apart here.
System: HIV-1
Conditions: for time within which capacity to inactivate HIV-1 reverse transcriptase was lost / permanence of HIV-1 reverse transcriptase inactivation: 10 nM compound, HIV-1 in MT-2 cells
Experimental: MT-2 cells were contacted with HIV-1 TCID50, and 0, 2, 10, 20, or 50 nM of either DAPY (TMC120-R147681) or azido-DAPY were placed on 50μ/well plates. The plates were placed on ice for 20 minutes and then irradiated at 7.5 cm from a UV light source (UVP lamp model UVGL-25) that provides UV light at a wavelength of 365 nm and an intensity of 1.14 W/cm^2 for a period of 20 minutes. Studies of HIV-1 infected MT-2 cells contacted with DAPY but not UV irradiated, and HIV-1 infected MT-2 cells that were irradiated but not contacted with DAPY or azido-DAPY were also performed.
The inactivation of HIV was evaluated by a reverse transcriptase activity assay as described by Xu et al. (2009). The measurements are provided in counts per minute (cpm).

SMILES: Cc1cc(C)c(Nc2ccnc(Nc3ccc(C#N)cc3)n2)c(C)c1 [DAPY, dapivirine]
- time within which capacity to inactivate HIV-1 reverse transcriptase was lost (with UV light treatment): ≤ 16 days
- permanence of HIV-1 reverse transcriptase inactivation (with UV light): inability to produce a permanent inactivation
- time within which capacity to inactivate HIV-1 reverse transcriptase was lost (without UV light treatment): ≤ 16 days
- permanence of HIV-1 reverse transcriptase inactivation (without UV light): inability to produce a permanent inactivation
- inactivation of HIV-1 in time-exposure studies (compound + UV light exposure, time-exposure studies): not observed

— patent US8623595B2, “Inactivation of reverse transcriptases by azido-diarylpyrimidines” (Photoimmune Biotechnology Inc., priority 2010, dated 2014)
